From patent US7994173B2, “2-piperazin-1-yl-3H-imidazo[4,5-b]pyridine derivatives” (Janssen Pharmaceutica N.V., priority 2007, dated 2011)
Structures can show the parent of a compound that is named as a salt.

What was measured:
[1] = system: fundus of the stomach (gastric tone); assay: Gastric tone measured by an electronic barostat in conscious dogs; type: in vivo, dog (female beagle); settings: for Maximum change in volume (Table C-2): I.D.
[2] = system: fundus of the stomach (gastric tone); assay: as above; type: in vivo, dog (female beagle); settings: for Maximum change in volume (mean): relaxation of the fundus, 1 hour after I.D. administration, 0.63 mg/kg
Description: Gastric tone cannot be measured by manometric methods. Therefore an electronic barostat was used. This allows the study of the physiological pattern and regulation of gastric tone in conscious dogs and the influence of test-compounds on this tone. The barostat consists of an air injection system which is connected by a double-lumen 14-French polyvinyl tube to an ultrathin flaccid polyethylene bag (maximal volume: ±700 ml). Variations in gastric tone were measured by recording changes in the volume of air within an intragastric bag, maintained at a constant pressure. The barostat maintains a constant pressure (preselected) within a flaccid air-filled bag introduced into the stomach, changing the volume of air within the bag by an electronic feedback system. Thus, the barostat measures gastric motor activity (contraction or relaxation) as changes in intragastric volume (decrease or increase resp.) at a constant intragastric pressure. The barostat consists of a strain gauge linked by an electronic relay to an air injection-aspiration system. Both the strain gauge and the injection system are connected by means of double-lumen polyvinyl tube to an ultrathin polyethylene bag. A dial in the barostat allows selection of the pressure level to be maintained within the intragastric bag. Female beagle dogs, weighing 7-17 kg, were trained to stand quietly in Pavlov frames. They were implanted with a gastric cannula under general anaesthesia and aseptic precautions. After a median laparotomy, an incision was made through the gastric wall in longitudinal direction between the greater and the lesser curve, 2 cm above the nerves of Latarjet. The cannula was secured to the gastric wall by means of a double purse string suture and brought out via a stub wound at the left quadrant of the hypochondrium. Dogs were allowed a recovery period of two weeks. At the beginning of the experiment, the cannula was opened in order to remove any gastric juice or food remnants. If necessary, the stomach was cleansed with 40 to 50 ml lukewarm water. The ultrathin bag of the barostat was positioned into the fundus of the stomach through the gastric cannula. In order to ensure easy unfolding of the intragastric bag during the experiment, a volume of 150-200 ml was injected into the bag by raising the pressure to maximally 14 mm Hg (about 1.87 kPa) very briefly. This procedure was repeated twice. After a stabilization period of 60 minutes at an intragastric pressure of 6 mmHg (about 0.81 kPa), the test compound was administered subcutaneously, or intraduodenally, at 2 mmHg (0.27 kPa). […] Table C-1 summarizes the mean maximal change in volume (in ml) on relaxation of the fundus, 1 hour after I.D. administration of the test compound (0.63 mg/kg).

| Structure (SMILES) | melting point [°C] | Maximum change in volume (mean) [2] [mL] | also measured |
| --- | --- | --- | --- |
| Cn1c(N2CCNCC2)nc2cccnc21 | 136 | – | – |
| Cn1c(N2CCN(Cc3cccnc3)CC2)nc2cccnc21 (as salt: HCl) (hydrate or solvate) [Co. No. 3] | 182 | – | – |
| CN(C)c1ccnc2c1nc(N1CCN(Cc3ccccc3)CC1)n2C [Co. No. 9] | 128 | – | – |
| Cn1c(N2CCNCC2)nc2cccnc21 [compound 14] | – | – | Maximum change in volume (mean) ([1]; relaxation of the fundus, 1 hour after I.D. administration, administered at 0.16 mg/kg (footnote *)): 154.6 mL |
| Cn1c(C2CCCN(Cc3ccccc3)CC2)nc2cccnc21 (centres unmarked) [(72) of WO-01/46189, reference compound] | – | – | Maximum change in volume (Table C-2) ([1]; dose 0.16 mg/kg): 45 mL |
| Cn1c(N2CCN(Cc3cccnc3)CC2)nc2cccnc21 [compound 3] | – | 154 | – |
| CCCc1nc2c(cc1C)nc(N1CCN(Cc3ccccc3)CC1)n2C [compound 1] | – | 237 | – |
| Cn1c(N2CCN(Cc3ccccc3)CC2)nc2cccnc21 [compound 11] | – | 220 | Maximum change in volume (Table C-2) ([2]; I.D., dose 0.63 mg/kg): 220 mL; Maximum change in volume (Table C-2) ([1]; dose 0.0025 mg/kg): 83 mL; Maximum change in volume (Table C-2) ([1]; dose 0.01 mg/kg): 157 mL; Maximum change in volume (Table C-2) ([1]; dose 0.04 mg/kg): 146 mL; Maximum change in volume (Table C-2) ([1]; dose 0.16 mg/kg): 180 mL |
| Cn1c(N2CCN(Cc3ccc4c(c3)OCO4)CC2)nc2cccnc21 [compound 10] | – | 251 | – |
| Cn1c(N2CCN(Cc3ccc4c(c3)OCO4)CC2)nc2cccnc21 [Co. No. 10] | 114 | – | – |
| CN(C)c1ccnc2c1nc(N1CCN(Cc3ccccc3)CC1)n2C [compound 9] | – | 185 | – |
| Cn1c(N2CCN(Cc3ccccc3)CC2)nc2cccnc21 [Co. No. 11] | 98 | – | – |
